Results on 14 molecules are retold here after PubChem BioAssay AID330 (DTP/NCI, 2004).

Structures are written as SMILES. “And” between values parts separate entries of the source, which are not always exact repeats. Equal entries are not always repeated. Inconclusive results and toxic doses are left out. Square brackets hold non-standard residues; d marks the D form. Peptide text beside a SMILES is read from it. Abu = CC[CH](N)C(=O)O

For the assay, the system named is P388 leukemia ip, CD2F1 mice, survival T/C. As to the kind of experiment: NCI In Vivo Anticancer Drug Screen. Data for tumor model P388 Leukemia (intraperitoneal) in CD2F1 (CDF1) mice. The conditions noted are these: endpoint: median survival time, higher = longer survival. In outline:
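Mice carrying the transplanted tumor received test compound or vehicle. Survival was recorded in each group, and the value is the treated-group measurement divided by that of the vehicle-treated control group.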

Setting [1] is: dose: 50.0 mg/kg/injection, schedule: Q01DX009 (ip), vehicle: saline with Tween-80.
[2] abbreviates: dose: 100.0 mg/kg/injection, schedule: Q01DX009 (ip), vehicle: saline with Tween-80.
The mark [3] stands for this setting: dose: 60.0 mg/kg/injection, schedule: Q01DX005 (ip), vehicle: Klucel (hydroxypropylcellulose) (HPC).
Where [4] appears, read: dose: 120.0 mg/kg/injection, schedule: Q01DX005 (ip), vehicle: Klucel (hydroxypropylcellulose) (HPC).

With `CCCCNC(=S)NC1C2CC3CC(C2)CC1C3` (stereo unspecified), the T/C was 97 % of control (dose: 50.0 mg/kg/injection, schedule: Q01DX009 (ip), vehicle: Klucel (hydroxypropylcellulose) (HPC)); 98 % of control (dose: 100.0 mg/kg/injection, schedule: Q01DX009 (ip), vehicle: Klucel (hydroxypropylcellulose) (HPC)); 101 % of control (dose: 200.0 mg/kg/injection, schedule: Q01DX009 (ip), vehicle: Klucel (hydroxypropylcellulose) (HPC)).
For the molecule `OC(C1CO1)C(O)C1CO1` (stereo unspecified), the T/C by setting is: (dose: 0.5 mg/kg/injection, schedule: Q01DX005 (ip), vehicle: saline) 113 % of control and 124 % of control; (dose: 0.5 mg/kg/injection, schedule: Q01DX009 (ip), vehicle: water) 175 % of control; (dose: 1.0 mg/kg/injection, schedule: Q01DX009 (ip), vehicle: saline) 167 % of control and 179 % of control; (dose: 1.0 mg/kg/injection, schedule: Q01DX009 (ip), vehicle: water) 185 % of control; (dose: 1.3 mg/kg/injection, schedule: Q01DX005 (ip), vehicle: saline) 121 % of control; (dose: 1.5 mg/kg/injection, schedule: Q01DX009 (ip), vehicle: saline) 155 % of control and 196 % of control. Moreover, the T/C was 159 % of control (dose: 2.0 mg/kg/injection, schedule: Q01DX009 (ip), vehicle: saline with Tween-80); 194 % of control and 207 % of control (dose: 2.0 mg/kg/injection, schedule: Q01DX009 (ip), vehicle: saline); 256 % of control (dose: 2.0 mg/kg/injection, schedule: Q01DX009 (ip), vehicle: water); 170 % of control and 181 % of control (dose: 3.0 mg/kg/injection, schedule: Q01DX005 (ip), vehicle: saline); 227 % of control (dose: 3.0 mg/kg/injection, schedule: Q01DX009 (ip), vehicle: saline); 216 % of control and 229 % of control (dose: 4.0 mg/kg/injection, schedule: Q01DX005 (ip), vehicle: saline). Besides, the T/C runs as follows: (dose: 4.0 mg/kg/injection, schedule: Q01DX009 (ip), vehicle: saline with Tween-80) 213 % of control; (dose: 4.0 mg/kg/injection, schedule: Q01DX009 (ip), vehicle: saline) 291 % of control; (dose: 4.5 mg/kg/injection, schedule: Q01DX005 (ip), vehicle: saline) 190 % of control and 225 % of control; (dose: 6.0 mg/kg/injection, schedule: Q01DX009 (ip), vehicle: saline) 89 % of control; (dose: 6.7 mg/kg/injection, schedule: Q01DX001 (ip), vehicle: saline) 157 % of control and 179 % of control; (dose: 6.7 mg/kg/injection, schedule: Q01DX005 (ip), vehicle: saline) 266 % of control. Moreover, the T/C runs as follows: (dose: 6.7 mg/kg/injection, schedule: Q04DX003 (ip), vehicle: saline) 243 % of control and 254 % of control; (dose: 8.0 mg/kg/injection, schedule: Q01DX005 (ip), vehicle: saline) 89 % of control; (dose: 8.0 mg/kg/injection, schedule: Q01DX009 (ip), vehicle: saline with Tween-80) 100 % of control; (dose: 8.0 mg/kg/injection, schedule: Q01DX009 (ip), vehicle: saline) 103 % of control; (dose: 10.0 mg/kg/injection, schedule: Q04DX003 (ip), vehicle: saline) 281 % of control and 298 % of control; (dose: 12.5 mg/kg/injection, schedule: Q04DX003 (ip), vehicle: saline) 108 % of control. Moreover, the T/C (dose: 25.0 mg/kg/injection, schedule: Q01DX009 (ip), vehicle: saline with Tween-80) is 100 % of control; the T/C (dose: 25.0 mg/kg/injection, schedule: Q04DX003 (ip), vehicle: saline sonified) is 100 % of control; the T/C under setting [1] is 104 % of control; the T/C (dose: 50.0 mg/kg/injection, schedule: Q04DX003 (ip), vehicle: saline sonified) was 100 % of control; the T/C under setting [2] was 109 % of control; the T/C (dose: 100.0 mg/kg/injection, schedule: Q04DX003 (ip), vehicle: saline sonified) was 104 % of control.
Consider `O=C(c1ccccc1)c1nc(-c2ccccc2)oc1-c1ccccc1`, for which the T/C reads like this: (dose: 100.0 mg/kg/injection, schedule: Q01DX001 (ip), vehicle: saline) 100 % of control; (dose: 200.0 mg/kg/injection, schedule: Q01DX001 (ip), vehicle: saline) 108 % of control; (dose: 400.0 mg/kg/injection, schedule: Q01DX001 (ip), vehicle: saline) 99 % of control.
Consider `CCOC(=O)c1ccc(N2C(=O)C(Cl)(c3ccccc3)C2c2ccco2)cc1` (stereo unspecified), for which the T/C is, setting by setting: (dose: 60.0 mg/kg/injection, schedule: Q01DX005 (ip), vehicle: saline with Tween-80) 100 % of control; (dose: 120.0 mg/kg/injection, schedule: Q01DX005 (ip), vehicle: saline with Tween-80) 95 % of control; (dose: 240.0 mg/kg/injection, schedule: Q01DX005 (ip), vehicle: saline with Tween-80) 94 % of control.
Take `CCC(N)C(=O)NC(CO)C(=O)O` (stereo unspecified) (H-[Abu]-Ser-OH; configuration not given here): the T/C (dose: 50.0 mg/kg/injection, schedule: Q01DX005 (ip), vehicle: saline) was 106 % of control; the T/C (dose: 100.0 mg/kg/injection, schedule: Q01DX005 (ip), vehicle: saline) was 109 % of control; the T/C (dose: 200.0 mg/kg/injection, schedule: Q01DX005 (ip), vehicle: saline) is 106 % of control.
Take `Clc1nc(Cl)nc(Nc2ncccn2)n1`: the T/C under setting [3] was 100 % of control and the T/C under setting [4] is 102 % of control.
In the case of `C/[N+]([O-])=C1\C(C2COC(C)(C)O2)OC2OC(C)(C)OC12` (stereo unspecified), the T/C is 97 % of control (dose: 100.0 mg/kg/injection, schedule: Q04DX002 (ip), vehicle: saline); 107 % of control (dose: 200.0 mg/kg/injection, schedule: Q04DX002 (ip), vehicle: saline); 105 % of control (dose: 400.0 mg/kg/injection, schedule: Q04DX002 (ip), vehicle: saline).
`CC1CN2CC(C)O[Si](CCCCCC[Si]34OC(C)CN(CC(C)O3)CC(C)O4)(O1)OC(C)C2` (stereo unspecified): the T/C is, setting by setting: (dose: 50.0 mg/kg/injection, schedule: Q01DX005 (ip), vehicle: Klucel (hydroxypropylcellulose) (HPC)) 108 % of control; (dose: 100.0 mg/kg/injection, schedule: Q01DX005 (ip), vehicle: Klucel (hydroxypropylcellulose) (HPC)) 97 % of control; (dose: 200.0 mg/kg/injection, schedule: Q01DX005 (ip), vehicle: Klucel (hydroxypropylcellulose) (HPC)) 97 % of control.
For `CO[C@H](C(=O)[C@@H](O)[C@@H](C)O)[C@@H]1Cc2cc3cc(O)c(C)c(O)c3c(O)c2C(=O)[C@H]1O`, the T/C is 107 % of control (dose: 8.0 mg/kg/injection, schedule: Q01DX009 (ip), vehicle: water); 114 % of control (dose: 16.0 mg/kg/injection, schedule: Q01DX009 (ip), vehicle: water); 100 % of control (dose: 32.0 mg/kg/injection, schedule: Q01DX009 (ip), vehicle: water).
On to `Cc1cc2c(=O)c3ccccc3oc2c(C#N)c1C`, for which the T/C is 97 % of control (dose: 60.0 mg/kg/injection, schedule: Q01DX005 (ip), vehicle: saline); 91 % of control (dose: 120.0 mg/kg/injection, schedule: Q01DX005 (ip), vehicle: saline); 89 % of control (dose: 240.0 mg/kg/injection, schedule: Q01DX005 (ip), vehicle: saline).
`CC(=O)OCN(C)N=Nc1ccc(C#N)cc1`: the T/C was 104 % of control under setting [3] and 108 % of control under setting [4].
For `CC1(C)OC1CS(=O)c1ccccc1` (stereo unspecified), the T/C is 101 % of control under setting [1]; 99 % of control (dose: 66.0 mg/kg/injection, schedule: Q01DX009 (ip), vehicle: saline with Tween-80); 99 % of control and 121 % of control under setting [2]; 114 % of control (dose: 200.0 mg/kg/injection, schedule: Q01DX009 (ip), vehicle: saline with Tween-80).
In the case of `COc1c2c(c(OC)c3c(OC)c4ccccc4c(OC)c13)CC(=O)CC2`, the T/C was 105 % of control (dose: 1.56 mg/kg/injection, schedule: Q01DX009 (ip), vehicle: other); 101 % of control (dose: 3.13 mg/kg/injection, schedule: Q01DX009 (ip), vehicle: other); 105 % of control (dose: 6.25 mg/kg/injection, schedule: Q01DX009 (ip), vehicle: other); 101 % of control (dose: 12.5 mg/kg/injection, schedule: Q01DX009 (ip), vehicle: other); 91 % of control (dose: 25.0 mg/kg/injection, schedule: Q01DX009 (ip), vehicle: other).
As to `COc1cc(CCNC(C)=O)cc(OC)c1OC`, the T/C was 100 % of control (dose: 25.0 mg/kg/injection, schedule: Q01DX005 (ip), vehicle: water); 104 % of control (dose: 50.0 mg/kg/injection, schedule: Q01DX005 (ip), vehicle: water); 100 % of control (dose: 100.0 mg/kg/injection, schedule: Q01DX005 (ip), vehicle: water); 91 % of control (dose: 200.0 mg/kg/injection, schedule: Q01DX005 (ip), vehicle: water).
